Key:
[1] = tested on: PC12 cell line; assay: NGF-induced neuritogenesis in PC12 cells; type: cell-based
Method: This NGF-induced neuritogenic response was apparently saturable at concentrations at and above 10 ng/mL in this context.
FIG. 4 depicts the percentage of PC12 cells with significant neurite outgrowth. The pattern observed here is similar to that observed for treatment-induced increases in average neurite length. Taken together, these evaluations support the interpretation that HPN-07 acts in concert with NGF to promote both de novo neurite outgrowth and changes in the stability or assembly kinetics of neurites in such a manner as to support increases in mean neurite length, both of which are desirable features for re-innervation of IHCs.

[2] = tested on: IHC ribbon synapses in murine SGN-IHC co-culture; assay: Kainic acid excitotoxic trauma in SGN-IHC co-culture; type: cell-based; settings: for KA-induced shift of pre-synaptic densities from typical to apical distributions: quantitative evaluation
From the text: The previous findings were applied to a murine SGN-IHC co-culture model of excitotoxic trauma. In IHCs of undamaged co-cultures of auditory sensory epithelia (organs of Corti, OC) and associated spiral ganglion neurons (NC), most of the pre-synaptic C-terminal binding protein 2 (CtBP2)-immunoreactive puncta (small red dots) are located in a “typical,” cytoarchitectural position, located along the basal surface of the cell, below or surrounding the IHC nucleus (large red spheres). A marked shift from this typical CtBP2 basal immunoreactivity pattern to a more apical distribution pattern occurred after exposure to the excitotoxic glutamate analog, kainic acid (KA). […] The ability of HPN-07 to restore the structural integrity of ribbon synapses among IHCs following an excitotoxic trauma in this co-culture model is consistent with HPN-07 acting to promote synaptogenesis (i.e., re-innervation) in this context.
FIG. 6 summarizes a quantitative evaluation from a targeted comparison of the number and spatial distribution of ribbons among IHCs from untreated, BDNF-treated, or HPN-07-treated explants following excitotoxic exposure to KA. […] Each data point represents a composite of approximately ten independent measurements.

[3] = tested on: murine spiral ganglion (SG) tissue explants; assay: Neuritogenesis in murine spiral ganglion explants; type: cell-based, mouse; settings: for neurite outgrowth induced by exogenous neurotrophic factor: at 10 μM (so in the source) relative to untreated controls, FIG. 24B, FIG. 26B
[4] = tested on: noise-damaged chinchilla; assay: Live animal study in noise-damaged chinchilla; type: in vivo
[5] = tested on: PC12 cell line; settings: cited from earlier work

Molecule: NGF: Nerve growth factor
- concentrations at which the NGF-induced neuritogenic response is saturable ([1]; NGF alone): ≥ 10 ng/mL
- neurite elongation ([1]; NGF alone): induced neurite elongation in a dose-dependent manner

Molecule: 2,4-disulfonyl α-phenyl tertiary butyl nitrone [HPN-07]
- mean neurite lengths ([1]; 1 μM HPN-07 + 10 ng/mL NGF, 6 days, FIG. 3): markedly surpassed the maximum lengths achieved in the saturable NGF dose-escalation series
- NGF-mediated neuritogenesis (mean neurite length) ([1]; 1 μM HPN-07 + 1 and 5 ng/mL NGF, 6 days, FIG. 3): enhances
- percentage of PC12 cells bearing neurites ([1]; HPN-07 + escalating doses of NGF, FIG. 4): significantly enhanced NGF-induced neuritogenesis
- neurite length, HPN-07 alone ([1]; low concentrations, no NGF): did not increase neurite length
- neurite densities along the base of IHCs ([2]; SGN-HC co-cultures following KA): increased neurite densities along the base of IHCs
- number of total ribbons among IHCs ([2]; after KA, compared with BDNF, FIG. 6): greater number of total ribbons
- KA-induced apical shift of CtBP2 puncta and loss of PSD-95 co-labeling (IHC ribbon synapse integrity) ([2]; post-excitotoxic treatment, 10 μM, FIG. 5): reversed this pathologic shift
- KA-induced shift of pre-synaptic densities from typical to apical distributions ([2]; FIG. 6): reversed this pathologic change
- potentiation of BDNF-induced neuritogenesis ([3]; BDNF 10 ng/mL + HPN-07 0.1 μM, 48 hours, serum-free medium, FIG. 2): potentiated neuritogenesis
- neurite outgrowth (number and length of neurites) from SG explants ([3]; HPN-07 alone vs untreated controls (NC), FIG. 1): induced marked neurite outgrowth
- concentration sufficient to induce a neuritogenic response ([3]; organotypic cultures of mouse spiral ganglion neurons): 100 µM
- number and extent of nerve fibers in addition to BDNF ([3]; with BDNF 10 ng/ml, FIG. 24): greatly increased the number and extent of nerve fibers
- NT-3 induced neuritogenesis ([3]; with NT-3 10 ng/ml, FIG. 26): enhanced
- functional recovery ([4]; long after the duration of treatment): progressive degree of functional recovery
- inner hair cell neurite populations ([4]; relative to untreated controls): significantly greater inner hair cell neurite populations

Molecule: CC(C)(C)[N+]([O-])=Cc1ccccc1 [PBN, alpha-phenyl N-tertiary-butyl nitrone]
- concentration required for inducing neuritogenesis in PC12 cells [5]: 10 mM

B1: BDNF: Brain-derived neurotrophic factor, the canonical cochlear neuritogenic growth factor (protein, UniProt P23560 19-247, looked up)
Neurotrophic factor BDNF …: APMKEANIRGQGGLAYPGVRTHGTLESVNGPKAGSRGLTSLADTFEHVIEELLDEDQKVRPNEENNKDADLYTSRVMLSSQVPLEPPLLFLLEEYKNYLDAANMSMRVRRHSDPARRGELSVCDSISEWVTAADKKTAVDMSGGTVTVLEKVPVSKGQLKQYFYETKCNPMGYTKEGCRGIDKRHWNSQCRTTQSYVRALTMDSKKRIGWRFIRIDTSCVCTLTIKRGR
- KA-induced shift of pre-synaptic densities from typical to apical distributions ([2]; FIG. 6): reversed this pathologic change
- neurite outgrowth induced by exogenous neurotrophic factor [3]: induced significant neurite outgrowth

B2: NT-3: inherent neurotrophic factor in the inner ear, essential for development and survival of cochlear spiral ganglions (protein, UniProt P20783 139-257, looked up)
Neurotrophin-3: YAEHKSHRGEYSVCDSESLWVTDKSSAIDIRGHQVTVLGEIKTGNSPVKQYFYETRCKEARPVKNGCRGIDDKHWNSQCKTSQTYVRALTSENNKLVGWRWIRIDTSCVCALSRKIGRT
- neurite outgrowth induced by exogenous neurotrophic factor [3]: induced significant neurite outgrowth

— patent US10576125B2, “Methods for enhancing synaptogenesis and neuritogenesis” (HOUGH EAR INSTITUTE, priority 2016, dated 2020)
